# Where a name gives a salt, the structure may show the parent alone. Read-outs that look alike come from different tables or passages of the source.
# Legend:
# [1] = system: Staphylococcus aureus subsp. aureus (ATCC29213); assay: MIC, broth microdilution (CLSI), Staphylococcus aureus ATCC29213; assay type: cell-based; details: Staphylococcus aureus
# [2] = system: Escherichia coli (ATCC25922); assay: MIC, broth microdilution (CLSI), Escherichia coli; details: Escherichia coli, ATCC25922, read-out: E. coli ATCC 25922 MIC, Table XIII
# [3] = ATCC29213, read-out: S. aureus ATCC 29213 MIC, Table XIII
# [4] = ATCC29213, Table XIII, read-out: S. aureus ATCC 29213 MIC
structure (smiles),measurement,setting,value
"c1cncc(C(CCNC2CCNCC2)c2cn(C3CC4CCC3C4)c3ccccc23)c1 (centres unmarked) [Compound 325, hydrochloride salt]",MIC,[1]; [3],64 µg/mL
same,MIC,[2],64 µg/mL
"Cc1cccc(C(CCNC2CCC(N)CC2)c2cn(C3CCNCC3)c3ccccc23)c1 (centres unmarked) [Compound 306, N1-(3-(1-(piperidin-4-yl)-1H-indol-3-yl)-3-(m-tolyl)propyl)cyclohexane-1,4-diamine hydrochloride salt]",MIC,[1]; [3],16 µg/mL
same,MIC,[2],> 128 µg/mL
"Cc1cccc(C(CCNC2CCNCC2)c2cn(CC3CCOCC3)c3ccc(C#N)cc23)c1 (centres unmarked) [Compound 316, 3-(3-(piperidin-4-ylamino)-1-(m-tolyl)propyl)-1-((tetrahydro-2H-pyran-4-yl)methyl)-1H-indole-5-carbonitrile hydrochloride salt]",MIC,[1]; [3],64 µg/mL
same,MIC,[2],64 µg/mL
"Cc1cccc(C(CCNCCCN)c2cn(CC3CCNCC3)c3ccc(C#N)cc23)c1 (centres unmarked) [Compound 327, 3-(3-((3-aminopropyl)amino)-1-(m-tolyl)propyl)-1-(piperidin-4-ylmethyl)-1H-indole-5-carbonitrile hydrochloride salt]",MIC,[1]; [3],32 µg/mL
same,MIC,[2],> 128 µg/mL
"c1ccc2c(c1)c(CNCC1CCNCC1)cn2CC1CCCCC1 [Compound 300, 1-(1-(cyclohexylmethyl)-1H-indol-3-yl)-N-(piperidin-4-ylmethyl)methanamine hydrochloride salt]",MIC,[1]; [3],128 µg/mL
same,MIC,[2],128 µg/mL
"Cc1cccc(C(CCNCCCN2CCCC2)c2cn(C3CCCCC3)c3ccccc23)c1 (centres unmarked) [Compound 367, 3-(1-cyclohexyl-1H-indol-3-yl)-N-(3-(pyrrolidin-1-yl)propyl)-3-(m-tolyl)propan-1-amine]",MIC,[1]; [4],64 µg/mL
same,MIC,[2],> 128 µg/mL
"Cl.Cl.N[C@H]1CC[C@H](NCCC(c2ccncc2)c2cn(C3CCCCC3)c3ccccc23)CC1 (some centres unmarked) [Compound 340, (1r,4r)-N1-(3-(1-cyclohexyl-1H-indol-3-yl)-3-(pyridin-4-yl)propyl) cyclohexane-1,4-diamine hydrochloride salt]",MIC,[1]; [4],64 µg/mL
same,MIC,[2],128 µg/mL
"COc1cccc(C(CCNCCCN)c2cn(C3CCCCC3)c3ccc(C#N)cc23)c1 (centres unmarked) [Compound 402, 3-(3-((3-aminopropyl)amino)-1-(3-methoxyphenyl)propyl)-1-cyclohexyl-1H-indole-5-carbonitrile hydrochloride salt]",MIC,[1]; [3],8 µg/mL
same,MIC,[2],16 µg/mL
"N#Cc1ccc2c(c1)c(C1CCCC(NCCCN)C1)cn2C1CCCCC1 (centres unmarked) [Compound 389, 3-(3-((3-aminopropyl)amino)cyclohexyl)-1-cyclohexyl-1H-indole-5-carbonitrile]",MIC,[1]; [4],16 µg/mL
same,MIC,[2],32 µg/mL
"Cl.Cl.NCCCNCCCc1cn(C2CCCCC2)c2ccc(Br)cc12 [Compound 359, N1-(3-(5-bromo-1-cyclohexyl-1H-indol-3-yl)propyl)propane-1,3-diamine hydrochloride salt]",MIC,[1]; [4],16 µg/mL
same,MIC,[2],16 µg/mL
"CCN(Cc1cn(CC2CCCCC2)c2ccccc12)CC1CCNCC1 [Compound 302, hydrochloride salt]",MIC,[1]; [3],128 µg/mL
same,MIC,[2],128 µg/mL
"Cc1cccc(C(CCNC2CCC(N)CC2)c2cn(C3CCOCC3)c3ccccc23)c1 (centres unmarked) [Compound 307, N1-(3-(1-(tetrahydro-2H-pyran-4-yl)-1H-indol-3-yl)-3-(m-tolyl)propyl) cyclohexane-1,4-diamine hydrochloride salt]",MIC,[1]; [3],64 µg/mL
same,MIC,[2],64 µg/mL
"Cl.Cl.c1ccc2c(c1)c(C(CCNC1CCNCC1)c1ccncc1)cn2C1CCCCC1 (centres unmarked) [Compound 335, N-(3-(1-cyclohexyl-1H-indol-3-yl)-3-(pyridin-4-yl)propyl)piperidin-4-amine hydrochloride salt]",MIC,[1]; [4],64 µg/mL
same,MIC,[2],64 µg/mL
"COc1cccc(C(CCNC2CCC(N)CC2)c2cn(C3CCCCC3)c3ccc(C#N)cc23)c1 (centres unmarked) [Compound 400, 3-(3-(((1s,4s)-4-aminocyclohexyl)amino)-1-(3-methoxyphenyl)propyl)-1-cyclohexyl-1H-indole-5-carbonitrile hydrochloride salt]",MIC,[1]; [3],16 µg/mL
same,MIC,[2],16 µg/mL
"Cl.Cl.c1ccc2c(c1)c(C(CCNC1CCNCC1)c1ccncc1)cn2C1CC2CCC1C2 (centres unmarked) [Compound 337, N-(3-(1-(bicyclo[2.2.1]heptan-2-yl)-1H-indol-3-yl)-3-(pyridin-4-yl)propyl)piperidin-4-amine hydrochloride salt]",MIC,[1]; [4],32 µg/mL
same,MIC,[2],64 µg/mL
"Cc1cccc(C(CCNC2CCC(N)CC2)c2cn(CC3CCOCC3)c3ccc(C#N)cc23)c1 (centres unmarked) [Compound 312, 3-(3-((4-aminocyclohexyl)amino)-1-(m-tolyl)propyl)-1-((tetrahydro-2H-pyran-4-yl)methyl)-1H-indole-5-carbonitrile hydrochloride salt]",MIC,[1]; [3],32 µg/mL
same,MIC,[2],64 µg/mL
"O=C(O)c1ccc2c(c1)c(CNCC1CCNCC1)cn2CC1CCCCC1 [Compound 305, 1-(cyclohexylmethyl)-3-(((piperidin-4-ylmethyl)amino)methyl)-1H-indole-5-carboxylic acid hydrochloride salt]",MIC,[1]; [3],> 128 µg/mL
same,MIC,[2],> 128 µg/mL
"Cc1ccccc1C(CCNCCCN)c1cn(C2CCCC2)c2ccccc12.Cl.Cl (centres unmarked) [Compound 342, N1-(3-(1-cyclopentyl-1H-indol-3-yl)-3-(o-tolyl)propyl)propane-1,3-diamine hydrochloride salt]",MIC,[1]; [4],16 µg/mL
same,MIC,[2],8 µg/mL
"Cc1cccc(C(CCOCCCN(C)C)c2cn(C3CCCCC3)c3ccccc23)c1 (centres unmarked) [Compound 364, 3-(3-(1-cyclohexyl-1H-indol-3-yl)-3-(m-tolyl)propoxy)-N,N-dimethylpropan-1-amine salt]",MIC,[1]; [4],8 µg/mL
same,MIC,[2],> 128 µg/mL
"Cc1cccc(C(CCNCC2OC(CO)C(O)C(O)C2O)c2cn(C3CCCCC3)c3ccccc23)c1 (centres unmarked) [Compound 391, 2-(((3-(1-cyclohexyl-1H-indol-3-yl)-3-(m-tolyl)propyl)amino)methyl)-6-(hydroxymethyl) tetrahydro-2H-pyran-3,4,5-triol]",MIC,[1]; [3],64 µg/mL
same,MIC,[2],128 µg/mL
"Cl.Cl.NCCCNCCC(c1cccnc1)c1cn(C2CC3CCC2C3)c2ccccc12 (centres unmarked) [Compound 328, N1-(3-(1-(bicyclo[2.2.1]heptan-2-yl)-1H-indol-3-yl)-3-(pyridin-3-yl)propyl)propane-1,3-diamine hydrochloride salt]",MIC,[1]; [4],32 µg/mL
same,MIC,[2],64 µg/mL
"COC(=O)c1ccc2c(c1)c(CNCC1CCNCC1)cn2CC1CCCCC1 [Compound 304, methyl 1-(cyclohexylmethyl)-3-(((piperidin-4-ylmethyl)amino)methyl)-1H-indole-5-carboxylate hydrochloride salt]",MIC,[1]; [3],64 µg/mL
same,MIC,[2],> 128 µg/mL
"Cc1cccc(C(CCNCCCCN)c2cn(C3CCCCC3)c3ccccc23)c1.Cl.Cl (centres unmarked) [Compound 350, N1-(3-(1-cyclohexyl-1H-indol-3-yl)-3-(m-tolyl)propyl)butane-1,4-diamine salt]",MIC,[1]; [4],8 µg/mL
same,MIC,[2],8 µg/mL
"Cl.Cl.NCCCNCCC(c1cncc2ccccc12)c1cn(C2CCCCC2)c2ccccc12 (centres unmarked) [Compound 369, N1-(3-(1-cyclohexyl-1H-indol-3-yl)-3-(isoquinolin-4-yl)propyl)propane-1,3-diamine hydrochloride]",MIC,[1]; [4],8 µg/mL
same,MIC,[2],8 µg/mL
"Cc1cccc(C(CCNC2CCNCC2)c2cn(CC3CCNCC3)c3ccccc23)c1 (centres unmarked) [Compound 315, N-(3-(1-(piperidin-4-ylmethyl)-1H-indol-3-yl)-3-(m-tolyl)propyl) piperichn-4-amine hydrochloride salt]",MIC,[1]; [3],64 µg/mL
same,MIC,[2],> 128 µg/mL

# Source: patent US20210246115A1 (Bioimics AB, priority 2017, published 2021)
